Read-outs that look alike come from different tables or passages of the source.
Test system: NLRP3
Experiment: IL-1β secretion assay in PMA-differentiated, LPS/nigericin-stimulated THP-1 cells (384-well, ELISA read-out)
Assay type: cell-based, human
Description: Compounds as provided herein were tested in the following assay. Cell culture medium employed contained RPMI 1640 medium (89%), FBS (10%), Pen/Strep (1%), and 2-mercaptoethanol (0.05 mM). Freezing medium was made up of 90% FBS and 10% DMSO. THP-1 cells were removed from the liquid nitrogen and placed into a 37° C. water bath to thaw, until signs of ice dissipated. The cells were then added to 9 mL of warm cell culture medium and centrifuged for 5 minutes at 1000 rpm. The supernatant was discarded, and the cells were resuspended in new cell culture medium. THP-1 cells were then split and cultured in the cell culture medium, being passaged every 2-3 days with the cell density will be maintained between 5×10^5 and 1.5×10^6 viable cells/mL.
To freeze, cells were resuspended with fresh freezing medium, adjusting the cell density to 5×10^6 cells/mL. The cell suspension was partitioned into 1 mL aliquots per vial, and the vials were transferred to a −80° C. freezer. After one day at −80° C., the cell vials were transferred to liquid nitrogen freezer for storage.
PMA was dissolved in DMSO to make a stock solution at 5 mg/mL and stored in 10 μl aliquots at −20° C. for single use. PMA is added to normal growth medium. LPS was diluted with 1 mL of water solution to provide a 1 mg/mL stock solution and stored in 15 μl aliquots at −20° C. for single use. Nigericin is diluted in ice cold 100% ethanol to 5 mg/mL (6.7 mM) and stored in 75 μL aliquots at −20° C. for single use. Serum-free media contains RPMI 1640 medium (99%), Pen/Strep (1%), and 2-mercaptoethanol (0.05 mM). The two control conditions used to qualify and normalize test compound dose-response curves were as follows: High Control=25 ng/mL LPS, 5 μM Nigericin, 0.5% DMSO, Low Control=25 ng/mL, LPS, 0.5% DMSO.
THP-1 cells were diluted to provide a suspension at a concentration of 1.0×10^6 cells/mL with the total volume of suspension required to enable the desired number of assay plates. The growth media was supplemented with PMA (5 ng/mL final concentration) and the cells were incubated at 37° C. under a humidified atmosphere of 5% CO2 for 40 h.
All media was carefully aspirated from each culture flask. The cells were washed carefully with 1×DPBS. The cells were then briefly digested with trypsin LE for 5 minutes at 23° C., and immediately resuspended in cell growth media. After resuspension, the cells were centrifuged at 1000 rpm for 3 minutes and the supernatant was discarded. The cells were resuspended in DPBS and once again centrifuged at 1000 rpm for 5 minutes. The supernatant was discarded and the cell pellet was resuspended in serum-free media supplemented with LPS (25 ng/mL final concentration) to enable the distribution of 30K THP-1 cells within 45 μL of media into each well of 384-well PDL-coated plates. The 384-well plates were then incubated at 37° C. under a humidified atmosphere of 5% CO2 for 2 h. Following this period, test compounds were dispensed by Tecan across the desired concentration range with all wells normalized to a final 0.5% DMSO concentration. The plates were then incubated at 37° C. under a humidified atmosphere of 5% CO2 for 1 h. Following this period, 5 μL of the […] was added to each of the appropriate wells and plates were centrifuged at 1000 rpm for 30 seconds. The plates were the immediately reintroduced to the incubator at 37° C. under a humidified atmosphere of 5% CO2 for 2 h. After this time, 35 μL/well of supernatant was collected and transferred into v-bottom plate and centrifuged at 1000 rpm for 1 minute. These supernatant aliquots were analyzed using an IL-Iβ detection kit as described below. If needed, the test samples could be snap frozen and stored at −80° C. until analyzed.
To prepare each ELISA plate, capture antibody (mAb Mt175) was diluted with PBS to a final concentration of 2 μg/mL and then 20 μL of this solution was added to each well of the ELISA plate. Each plate was allowed to incubate overnight at 4° C.

[1] = Homo sapiens, THP-1, IL-1β secretion, PMA-differentiated THP-1 cells, LPS then nigericin stimulation, ELISA read at 450 nm, read-out: Activity
[2] = Table 4, IL-1β secretion, LPS/nigericin-stimulated THP-1 cells, read-out: IC50
[3] = IL-1β secretion, PMA-differentiated THP-1 cells, LPS then nigericin stimulation, ELISA read at 450 nm, read-out: Activity

SMILES	IC50 [1] [µM]	IC50 [2] [µM]	IC50 [3] [µM]
C[C@@H]1[C@H](F)[C@]12CN(CC(=O)Nc1ncc(F)cn1)C(=O)c1ccc(Br)cc12 (single isomer, unassigned) [Example 277, 2-[(2′s,3′s,4r)-6-bromo-2′-fluoro-3′-methyl-1-oxospiro[3H-isoquinoline-4,1′-cyclopropane]-2-yl]-N-(5-fluoropyrimidin-2-yl)acetamide]	< 10	0.021	
C[C@@H]1[C@H](F)[C@]12CN(CC(=O)Nc1ncc(F)cn1)C(=O)c1ccc(Br)cc12 (single isomer, unassigned) [Example 278, 2-[(2′s,3′s,4r)-6-bromo-2′-fluoro-3′-methyl-1-oxospiro[3H-isoquinoline-4,1′-cyclopropane]-2-yl]-N-(5-fluoropyrimidin-2-yl)acetamide]		1.79	< 10
C[C@H]1C[C@]12CN(CC(=O)Nc1ncc(F)cn1)C(=O)c1ccc(Br)cc12 (single isomer, unassigned) [Example 279, 2-[(2′s,4s)-6-bromo-2′-methyl-1-oxospiro[3H-isoquinoline-4,1′-cyclopropane]-2-yl]-N-(5-fluoropyrimidin-2-yl)acetamide]	> 15	22.4	
C[C@H]1C[C@]12CN(CC(=O)Nc1ncc(F)cn1)C(=O)c1ccc(Br)cc12 (single isomer, unassigned) [Example 280, 2-[(2′s,4s)-6-bromo-2′-methyl-1-oxospiro[3H-isoquinoline-4,1′-cyclopropane]-2-yl]-N-(5-fluoropyrimidin-2-yl)acetamide]		2.37	< 10
C[C@H]1C[C@@]12CN(CC(=O)Nc1ncc(F)cn1)C(=O)c1ccc(Br)cc12 (single isomer, unassigned) [Example 281, 2-[(2′s,4r)-6-bromo-2′-methyl-1-oxospiro[3H-isoquinoline-4,1′-cyclopropane]-2-yl]-N-(5-fluoropyrimidin-2-yl)acetamide]	< 10	0.108	
C[C@H]1C[C@@]12CN(CC(=O)Nc1ncc(F)cn1)C(=O)c1ccc(Br)cc12 (single isomer, unassigned) [Example 282, 2-[(2′s,4r)-6-bromo-2′-methyl-1-oxospiro[3H-isoquinoline-4,1′-cyclopropane]-2-yl]-N-(5-fluoropyrimidin-2-yl)acetamide]		1.05	< 10
O=C(CN1C[C@@]2(C[C@@H]2Cl)c2cc(Br)ccc2C1=O)Nc1ncc(F)cn1 (single isomer, unassigned) [Example 283, 2-[(2′r,4s)-6-bromo-2′-chloro-1-oxospiro[3H-isoquinoline-4,1′-cyclopropane]-2-yl]-N-(5-fluoropyrimidin-2-yl)acetamide]	< 10	0.101	
O=C(CN1C[C@@]2(C[C@@H]2Cl)c2cc(Br)ccc2C1=O)Nc1ncc(F)cn1 (single isomer, unassigned) [Example 284, 2-[(2′r,4s)-6-bromo-2′-chloro-1-oxospiro[3H-isoquinoline-4,1′-cyclopropane]-2-yl]-N-(5-fluoropyrimidin-2-yl)acetamide]		0.05	< 10
N#C[C@H]1C[C@@]12CN(CC(=O)Nc1ncc(F)cn1)C(=O)c1ccc(Br)cc12 (single isomer, unassigned) [Example 286, 2-[(2′s,4r)-6-bromo-2′-cyano-1-oxospiro[3H-isoquinoline-4,1′-cyclopropane]-2-yl]-N-(5-fluoropyrimidin-2-yl)acetamide]	< 10	1.95	
N#C[C@H]1C[C@@]12CN(CC(=O)Nc1ncc(F)cn1)C(=O)c1ccc(Br)cc12 (single isomer, unassigned) [Example 287, 2-[(2′s,4r)-6-bromo-2′-cyano-1-oxospiro[3H-isoquinoline-4,1′-cyclopropane]-2-yl]-N-(5-fluoropyrimidin-2-yl)acetamide]		0.251	< 10
